# Counter-ions that a name gives are not always drawn.
# Columns and labels:
# Conditions in all cases: exposure time: 72 h
# E13 [1] = patient-derived glioblastoma stem cells of classical subtype; assay: surviving fraction (nuclei count normalised to DMSO); higher = more cells surviving (less toxic)
# E21 [2] = patient-derived glioblastoma stem cells of mesenchymal subtype; assay: as above
# E28 [3] = patient-derived glioblastoma stem cells of classical subtype; assay: as above
# E31 [4] = patient-derived glioblastoma stem cells of proneural subtype; assay: as above
# E34 [5] = patient-derived glioblastoma stem cells of proneural subtype; assay: as above
# E57 [6] = patient-derived glioblastoma stem cells of mesenchymal subtype; assay: as above
# FT3469 [7] = normal neural stem cell line; assay: as above
# E13 [8] = assay: phenotypic distance (Euclidean, principal components) from DMSO controls (arbitrary units); higher = stronger morphological change
# E21 [9] = assay: as above
# E28 [10] = assay: as above
# E31 [11] = assay: as above
# E34 [12] = assay: as above
# E57 [13] = assay: as above
# FT3469 [14] = assay: as above
# 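Throughout, for phenotypic distance (Euclidean, principal components) from DMSO controls: cell Painting imaging in 384-well plates, CellProfiler features reduced to at least 20 principal components, Euclidean distance versus same-plate DMSO vehicle wells (0.1% v/v), median over six images per well.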
# 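Throughout, for surviving fraction (nuclei count normalised to DMSO): nuclei counted by high-content imaging of Hoechst-stained cells in laminin-coated 384-well plates, relative to 0.1% DMSO vehicle wells, with staurosporine as cell-death control.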
compound,measurement,setting,value
CN[C@@H]1[C@@H](O)[C@@H](O[C@@H]2[C@@H](O)[C@H](O[C@H]3OC(CN)=CC[C@H]3N)[C@@H](N)C[C@H]2N)OC[C@]1(C)O [Sisomicin sulfate],surviving fraction,E13 [1]; 4.1 nM,1.01
same,surviving fraction,E13 [1]; 12.3 nM,0.994
same,surviving fraction,E13 [1]; 37 nM,0.923
same,surviving fraction,E13 [1]; 111.1 nM,0.949
same,surviving fraction,E13 [1]; 333.3 nM,0.983
same,surviving fraction,E13 [1]; 1000 nM,1.1
same,surviving fraction,E13 [1]; 3000 nM,0.959
same,surviving fraction,E21 [2]; 4.1 nM,0.929
same,surviving fraction,E21 [2]; 12.3 nM,1.06
same,surviving fraction,E21 [2]; 37 nM,0.919
same,surviving fraction,E21 [2]; 111.1 nM,0.966
same,surviving fraction,E21 [2]; 333.3 nM,1.03
same,surviving fraction,E21 [2]; 1000 nM,0.992
same,surviving fraction,E21 [2]; 3000 nM,0.864
same,surviving fraction,E28 [3]; 4.1 nM,0.849
same,surviving fraction,E28 [3]; 12.3 nM,0.982
same,surviving fraction,E28 [3]; 37 nM,0.892
same,surviving fraction,E28 [3]; 111.1 nM,0.985
same,surviving fraction,E28 [3]; 333.3 nM,0.937
same,surviving fraction,E28 [3]; 1000 nM,0.984
same,surviving fraction,E28 [3]; 3000 nM,0.902
same,surviving fraction,E31 [4]; 4.1 nM,0.953
same,surviving fraction,E31 [4]; 12.3 nM,0.893
same,surviving fraction,E31 [4]; 37 nM,0.996
same,surviving fraction,E31 [4]; 111.1 nM,0.985
same,surviving fraction,E31 [4]; 333.3 nM,0.92
same,surviving fraction,E31 [4]; 1000 nM,0.979
same,surviving fraction,E31 [4]; 3000 nM,0.914
same,surviving fraction,E34 [5]; 4.1 nM,0.838
same,surviving fraction,E34 [5]; 12.3 nM,0.957
same,surviving fraction,E34 [5]; 37 nM,0.811
same,surviving fraction,E34 [5]; 111.1 nM,0.957
same,surviving fraction,E34 [5]; 333.3 nM,0.867
same,surviving fraction,E34 [5]; 1000 nM,0.88
same,surviving fraction,E34 [5]; 3000 nM,0.901
same,surviving fraction,E57 [6]; 4.1 nM,0.973
same,surviving fraction,E57 [6]; 12.3 nM,0.964
same,surviving fraction,E57 [6]; 37 nM,0.884
same,surviving fraction,E57 [6]; 111.1 nM,0.95
same,surviving fraction,E57 [6]; 333.3 nM,0.927
same,surviving fraction,E57 [6]; 1000 nM,0.919
same,surviving fraction,E57 [6]; 3000 nM,0.966
same,surviving fraction,FT3469 [7]; 4.1 nM,0.936
same,surviving fraction,FT3469 [7]; 12.3 nM,1.08
same,surviving fraction,FT3469 [7]; 37 nM,1.04
same,surviving fraction,FT3469 [7]; 111.1 nM,0.924
same,surviving fraction,FT3469 [7]; 333.3 nM,1.08
same,surviving fraction,FT3469 [7]; 1000 nM,1.08
same,surviving fraction,FT3469 [7]; 3000 nM,1.02
same,phenotypic distance,E13 [8]; 4.1 nM,0.369
same,phenotypic distance,E13 [8]; 12.3 nM,0.462
same,phenotypic distance,E13 [8]; 37 nM,0.472
same,phenotypic distance,E13 [8]; 111.1 nM,0.486
same,phenotypic distance,E13 [8]; 333.3 nM,0.393
same,phenotypic distance,E13 [8]; 1000 nM,0.501
same,phenotypic distance,E13 [8]; 3000 nM,0.645
same,phenotypic distance,E21 [9]; 4.1 nM,0.673
same,phenotypic distance,E21 [9]; 12.3 nM,0.75
same,phenotypic distance,E21 [9]; 37 nM,0.611
same,phenotypic distance,E21 [9]; 111.1 nM,0.334
same,phenotypic distance,E21 [9]; 333.3 nM,0.705
same,phenotypic distance,E21 [9]; 1000 nM,0.424
same,phenotypic distance,E21 [9]; 3000 nM,1.26
same,phenotypic distance,E28 [10]; 4.1 nM,0.802
same,phenotypic distance,E28 [10]; 12.3 nM,0.276
same,phenotypic distance,E28 [10]; 37 nM,0.807
same,phenotypic distance,E28 [10]; 111.1 nM,0.454
same,phenotypic distance,E28 [10]; 333.3 nM,0.891
same,phenotypic distance,E28 [10]; 1000 nM,0.259
same,phenotypic distance,E28 [10]; 3000 nM,0.736
same,phenotypic distance,E31 [11]; 4.1 nM,0.521
same,phenotypic distance,E31 [11]; 12.3 nM,0.711
same,phenotypic distance,E31 [11]; 37 nM,0.705
same,phenotypic distance,E31 [11]; 111.1 nM,0.391
same,phenotypic distance,E31 [11]; 333.3 nM,0.642
same,phenotypic distance,E31 [11]; 1000 nM,0.692
same,phenotypic distance,E31 [11]; 3000 nM,0.63
same,phenotypic distance,E34 [12]; 4.1 nM,1.06
same,phenotypic distance,E34 [12]; 12.3 nM,0.852
same,phenotypic distance,E34 [12]; 37 nM,0.946
same,phenotypic distance,E34 [12]; 111.1 nM,0.273
same,phenotypic distance,E34 [12]; 333.3 nM,2.48
same,phenotypic distance,E34 [12]; 1000 nM,3.23
same,phenotypic distance,E34 [12]; 3000 nM,0.712
same,phenotypic distance,E57 [13]; 4.1 nM,0.637
same,phenotypic distance,E57 [13]; 12.3 nM,0.658
same,phenotypic distance,E57 [13]; 37 nM,0.794
same,phenotypic distance,E57 [13]; 111.1 nM,0.322
same,phenotypic distance,E57 [13]; 333.3 nM,0.595
same,phenotypic distance,E57 [13]; 1000 nM,0.802
same,phenotypic distance,E57 [13]; 3000 nM,0.686
same,phenotypic distance,FT3469 [14]; 4.1 nM,0.895
same,phenotypic distance,FT3469 [14]; 12.3 nM,0.713
same,phenotypic distance,FT3469 [14]; 37 nM,0.549
same,phenotypic distance,FT3469 [14]; 111.1 nM,0.66
same,phenotypic distance,FT3469 [14]; 333.3 nM,0.495
same,phenotypic distance,FT3469 [14]; 1000 nM,0.637
same,phenotypic distance,FT3469 [14]; 3000 nM,0.793
